One assay deals with T1, human GLP-1-R (Homo sapiens, UniProt P43220).
T1 construct: expressed in transfected cells
Put plainly: GLP-1 receptor efficacy assay (cAMP, HEK293 cells). For EC50: crude peptides with purity of less than 90%. The format is cell-based. Here is the method: (§1) The 5′-end primers additionally encoded a near Kozak consensus sequence to ensure efficient translation.
(§2) 48 hr after transfection cells were seeded for limited dilution cloning and selected with 1 mg/ml G418 in the culture medium.
(§3) On the day of analysis, growth medium was removed and the cells washed once with 200 μl Tyrode buffer. Cells were incubated in 100 μl Tyrode buffer containing increasing concentrations of test peptides, 100 μM IBMX, and 6 mM glucose for up 15 min at 37° C. The reaction was stopped by addition of 25 μl 0.5 M HCl and incubated on ice for 60 min. The cAMP content was estimated using the FlashPlate® cAMP kit from Perkin-Elmer.

The target in the next assay is T2, human Glucagon-R (Homo sapiens, UniProt P47871).
T2 construct: expressed in transfected cells
The experiment in a line: Glucagon receptor efficacy assay (cAMP, HEK293 cells). Note: crude peptides with purity of less than 90%. It counts as cell-based. The following applies: read-out: GLUR EC50. The protocol:
as §1, §2, §3

In the next assay the test system is primary rat adipocytes. It counts as cell-based. Here is the method:
Adipocytes were isolated from epididymal fat dissected from normal young adult Sprague-Dawley rats. The fat lumps were minced, incubated and shaken (220 rpm) with collagenase (1 mg/ml) in Krebs-Ringer buffer containing 4% BSA (KRB-BSA) for 60 minutes at 37° C. The suspension was filtered through a nylon filter (160 μm pore size) and the filtrate centrifuged at 200×g for 3 min. The subjacent medium beneath the upper floating layer of adipocytes was removed with a Pasteur-pipette. The adipocytes were washed 3 times in KRB-BSA buffer by re-suspension and centrifugation. The adipocytes were re-suspended in KRB-BSA, mixed, incubated in and shaken with test compounds in 96-deep well plates (50,000 cells/well) in a total volume of 1 ml at 37° C. for 60 min. The plates were placed on ice for at least 10 min after incubation followed by centrifugation at 200×g for 3 min. 300 μl of the buffer beneath the adipocyte layer were collected in a 96-deep well plate. This process was repeated two more times and the 3 extracts collected from each culture pooled together.

A further assay deals with C57Bl/6 mice. Put plainly: Food intake in normal mice. The format is in vivo. Conditions: fasted mice, s.c.; PYY3-36 30 nmol/kg, glucagon 500 nmol/kg, ZP2663 500 nmol/kg.
Another assay has as its system db/db mice. The experiment in a line: Oral glucose tolerance test (OGTT) in db/db mice. The format is in vivo. Conditions: i.p., 45 nmol/kg. Here is the method:
The animals were kept fasted during the experiment to prevent confounding food intake. Fifteen minutes later an oral dose of glucose (1 g/kg in 5 ml/kg) was given and BG levels were measured at t=30 min, t=60 min, t=120 min and t=240 min.
Difference from baseline (t=0) was calculated for each time point and AUC0-240 min values were determined. Statistical analyses of AUC values by one-way ANOVA and Dunnetts post-hoc analyses were performed with GraphPad Prism version 4. Differences were considered significant at the p<0.05 level.

Assay [1] relates to diet induced obese (DIO) mice. The experiment in a line: 28 day treatment of diet induced obese (DIO) mice: body weight and plasma cholesterols. The format is in vivo. The protocol: Four weeks before drug treatments, C57Bl/6 male mice (7 weeks) (N=9-12 animals in each group) were put on high fat diet (HFD) and their day-night cycle reversed with lights On/Off at 2000/0800 hour. Experimental animals were conditioned to treatment by daily injections (s.c.) of 0.1 ml vehicle and acclimatized to handling by weighing them twice a week one week before start of drug administrations. […] Animals were fasted overnight before sacrifice. An eye blood sample (0.6 ml EDTA) was obtained the following morning immediately before cervical dislocation. Blood plasma samples were stored at −80° C. until analyzed for cholesterol, HDL and LDL using commercially available kits. Body weight gain throughout the treatment period was calculated for each animal by subtracting its weight at the initiation of treatment.
The effects of treatment on body weight gain and cholesterols were assessed by 2-way ANOVA with repeated measures and Bonferoni post-hoc analyses, using GraphPad Prism version 4. Differences were considered significant at the 0.05 level.

This note sets out measurements from patent US8680049B2 (Zealand Pharma A/S, priority 2008, dated 2014).

As a reminder, the EC50 is the concentration giving half of the maximal effect.

T1 sequence (P43220 24-463): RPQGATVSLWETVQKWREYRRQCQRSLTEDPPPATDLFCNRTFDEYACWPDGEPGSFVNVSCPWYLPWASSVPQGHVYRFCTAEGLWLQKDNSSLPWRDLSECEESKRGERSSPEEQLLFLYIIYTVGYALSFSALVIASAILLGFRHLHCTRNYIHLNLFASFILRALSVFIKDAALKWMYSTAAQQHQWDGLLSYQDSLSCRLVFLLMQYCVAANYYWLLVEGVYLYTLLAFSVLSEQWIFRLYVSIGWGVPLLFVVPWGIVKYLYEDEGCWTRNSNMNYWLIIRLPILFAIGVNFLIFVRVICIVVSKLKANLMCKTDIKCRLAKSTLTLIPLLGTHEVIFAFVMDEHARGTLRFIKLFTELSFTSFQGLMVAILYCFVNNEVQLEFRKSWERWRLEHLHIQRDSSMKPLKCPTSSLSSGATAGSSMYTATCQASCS
T2 sequence (P47871 26-477): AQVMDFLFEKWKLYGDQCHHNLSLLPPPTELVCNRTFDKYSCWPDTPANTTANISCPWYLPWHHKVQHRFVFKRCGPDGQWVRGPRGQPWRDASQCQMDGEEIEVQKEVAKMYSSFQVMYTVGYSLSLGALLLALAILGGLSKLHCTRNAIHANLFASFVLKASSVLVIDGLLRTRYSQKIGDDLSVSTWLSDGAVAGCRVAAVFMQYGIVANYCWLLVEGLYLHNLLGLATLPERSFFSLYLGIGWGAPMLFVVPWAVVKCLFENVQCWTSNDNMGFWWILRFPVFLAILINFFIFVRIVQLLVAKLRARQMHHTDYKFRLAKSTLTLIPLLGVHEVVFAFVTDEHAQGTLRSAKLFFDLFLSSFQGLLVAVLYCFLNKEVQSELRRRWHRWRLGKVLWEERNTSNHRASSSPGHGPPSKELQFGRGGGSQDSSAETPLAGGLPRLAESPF
Experimental for C57Bl/6 mice: One week before study C57Bl/6 mice (8 weeks) (N=9-12 animals in each group) were conditioned to treatment by daily injections (s.c.) of 0.2 ml vehicle and acclimatized to handling by weighing them twice a week. Mice were stratified one day before start of experiment into groups with similar body weight (BW). […] After one hour pre-weighed food was introduced to the mice and food intake measured by weighing the remaining food after one hour and expressed relative to body weight (mg food/g BW). Statistical analyses of food intake data by one-way ANOVA and Dunnetts post-hoc analyses were performed with GraphPad Prism version 4. Differences were considered significant at the 0.05 level.

Take “H-HSQGTFTSDYSKYLDDRRARDFIDWLLSA-NH2 [Compound L006-0093]”: the EC50 was determined as 0.07 nM at human GLP-1-R and 0.1 nM at human Glucagon-R.
The like results for “H-HSQGTFTSDYSKYLDERRAKDFIEWLLRA-NH2 [Compound L006-0138]” were, in that order, 0.29 nM and 0.38 nM.
For “H-HSQGTFTSDYSKYLDERAAKDFIEWLLSA-NH2 [Compound L006-0108]”, the EC50 at human GLP-1-R was determined as 0.53 nM; on human Glucagon-R, 0.81 nM.
The like results for “H-HSQGTFTSDYSKYLDERRAKDFIRWLLSA-NH2 [Compound L006-0128]” were, in that order, 0.16 nM and 0.22 nM.
The like results for `CC[C@H](C)[C@H](NC(=O)[C@H](Cc1ccccc1)NC(=O)[C@H](CC(=O)O)NC(=O)[C@H](CCC(N)=O)NC(=O)[C@H](C)NC(=O)[C@H](CCCNC(=N)N)NC(=O)[C@H](CCCNC(=N)N)NC(=O)[C@H](CO)NC(=O)[C@H](CC(=O)O)NC(=O)[C@H](CC(C)C)NC(=O)[C@H](Cc1ccc(O)cc1)NC(=O)[C@H](CCCCN)NC(=O)[C@H](CO)NC(=O)[C@H](Cc1ccc(O)cc1)NC(=O)[C@H](CC(=O)O)NC(=O)[C@H](CO)NC(=O)[C@@H](NC(=O)[C@H](Cc1ccccc1)NC(=O)[C@@H](NC(=O)CNC(=O)[C@H](CCC(N)=O)NC(=O)[C@H](CO)NC(=O)[C@@H](N)Cc1c[nH]cn1)[C@@H](C)O)[C@@H](C)O)C(=O)N[C@@H](CCC(=O)O)C(=O)N[C@@H](Cc1c[nH]c2ccccc12)C(=O)N[C@@H](CC(C)C)C(=O)N[C@@H](CC(C)C)C(=O)N[C@@H](CO)C(=O)N[C@@H](C)C(N)=O` [Compound L006-0090] were, in that order, 0.15 nM and 0.22 nM.
The like results for “H-HSQGTFTSDYSKYLDERRAKDFIDWLLSA-NH2 [Compound L006-0129]” were, in that order, 0.2 nM and 0.24 nM.
Consider Exendin-4, for which the “EC50, stimulation of lipolysis in primary rat adipocyte cultures” value with primary rat adipocytes (60 min, glycerol formed) is on record as “No effect”. The “GLP-1R agonist activity (in words)” value at human GLP-1-R was “very potent GLP-1R agonist”.
With “H-HSQGTFTSDYSKYLDERRAKDFIQWLLSA-NH2 [Compound L006-0084]”, the EC50 on human GLP-1-R turned out to be 0.07 nM; on human Glucagon-R, 0.13 nM.
Take `CC[C@H](C)[C@H](NC(=O)[C@H](Cc1ccccc1)NC(=O)[C@H](CC(=O)O)NC(=O)[C@H](CCCCN)NC(=O)[C@H](C)NC(=O)[C@H](CCCNC(=N)N)NC(=O)[C@H](CCCNC(=N)N)NC(=O)[C@H](CCC(=O)O)NC(=O)[C@H](CC(=O)O)NC(=O)[C@H](CC(C)C)NC(=O)[C@H](Cc1ccc(O)cc1)NC(=O)[C@H](CCCCN)NC(=O)[C@H](CO)NC(=O)[C@H](Cc1ccc(O)cc1)NC(=O)[C@H](CC(=O)O)NC(=O)[C@H](CO)NC(=O)[C@@H](NC(=O)[C@H](Cc1ccccc1)NC(=O)[C@@H](NC(=O)CNC(=O)[C@H](CCC(N)=O)NC(=O)[C@H](CO)NC(=O)[C@@H](N)Cc1c[nH]cn1)[C@@H](C)O)[C@@H](C)O)C(=O)N[C@@H](CCC(=O)O)C(=O)N[C@@H](Cc1c[nH]c2ccccc12)C(=O)N[C@@H](CC(C)C)C(=O)N[C@@H](CC(C)C)C(=O)N[C@@H](CO)C(=O)N[C@@H](C)C(N)=O` [ZP2663]: in the assay with primary rat adipocytes, the EC50 is 4.4 nM and the “effect on lipolysis in primary adipocyte cultures (in words)” value is reported as “equipotent with glucagon”. Further, the “food intake during the first hour (in words)” value in the assay with C57Bl/6 mice was “significantly decreased food intake”. Also, in the assay with db/db mice, the “improvement of glucose tolerance” value stood at 64.9%. Besides, the “glucose tolerance during OGTT (in words)” value in the assay on db/db mice (AUC0-240 min) is on record as “significantly improved glucose tolerance”. For the same molecule, the “body weight gain (in words)” value in assay [1] (500 nmol/kg b.i.d. s.c., 28 days) was “decreased body weight gain to a level similar to that observed with chow feeding”. For the same molecule, the “blood concentration of LDL cholesterol vs vehicle (in words)” value in assay [1] (4 weeks b.i.d.) is “statistically significantly different from the vehicle group”. Moreover, in assay [1] (4 weeks treatment), the “fat deposition (in words)” value is recorded as “significantly decreased fat deposition”.
Molecule “H-HSQGTFTSDYSKYLDERRAQDFIEWLLSA-NH2 [Compound L006-0082]” showed an EC50 at human GLP-1-R of 0.09 nM.
Regarding “H-HSQGTFTSDYSKYLDKRRAEDFIKWLLSA-NH2 [Compound L006-0094]”, the values for the EC50 at human GLP-1-R and at human Glucagon-R were 0.16 nM and 0.25 nM, respectively.
The like results for “H-HSQGTFTSDYSKYLDERRAKDFIEWLLAA-NH2 [Compound L006-0136]” were, in that order, 0.22 nM and 0.33 nM.
Consider “PYY(3-36): internal positive control for food intake (anorectic peptide) [reference compound]”, for which the “food intake during the first hour (in words)” value in the assay on C57Bl/6 mice is recorded as “anorectic effect”.
“H-HSQGTFTSDYSKYLDSRRAKDFIEWLLSA-NH2 [Compound L006-0081]”: the EC50 at human GLP-1-R was found to be 0.14 nM; on human Glucagon-R it was 0.23 nM.
